Results from US20260262643A1, “HERBICIDAL BENZOXAZINES” (FMC CORPORATION, priority 2022, published 2026).

Assays:
goosegrass [1] = test: Test C postemergence; format: in vivo, Eleusine indica; conditions: 10 days
Text: (§1) Seeds of plant species selected from barnyardgrass (Echinochloa crusgalli), blackgrass (Alopecurus myosuroides), corn (Zea mays), foxtail, giant (giant foxtail, Setaria faberi), green foxtail (Setaria viridis), goosegrass (Eleusine indica), kochia (Bassia scoparia), oat, wild (wild oat, Avena fatua), pigweed, palmer (palmer amaranth, palmer pigweed, Amaranthus palmeri), Pigweed, Redroot (redroot pigweed, Amaranthus retroflexus), ragweed (common ragweed, Ambrosia artemisiifolia), ryegrass, Italian ([…] ryegrass, Lolium multiflorum), soybean (Glycine max), and wheat (Triticum aestivum) were planted into a blend of loam soil and sand and treated preemergence with a directed soil spray using test chemicals formulated in a non-phytotoxic solvent mixture which included a surfactant. At the same time, plants selected from these crops and weed species and also galium (catchweed bedstraw, Galium aparine) and horseweed (Erigeron canadensis) were planted in pots containing the same blend of loam soil and sand and treated with postemergence applications of test chemicals formulated in the same manner. Plants ranged in height from 2 to 10 cm and were in the one- to two-leaf stage for the postemergence treatment. Treated plants and untreated controls were maintained in a greenhouse for 10 days, after which time all treated plants were compared to untreated controls and visually evaluated for injury. Plant response ratings, summarized in Table C, are based on a 0 to 100 scale where 0 is no effect and 100 is complete control. A dash (-) response means no test result.

barnyardgrass = test: Test D flooded paddy test; format: in vivo, Echinochloa crus-galli; conditions: 250 g ai/ha, applied to paddy water, visual rating after 13 to 14 days, scale 0 to 100 (0 no effect, 100 complete control)
Outline: (§2)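 Plants at the 2-leaf stage were grown in pots flooded to 3 cm, and compound was applied directly into the paddy water, with depth kept throughout. After 13–14 days in a greenhouse, injury was rated visually against untreated controls on a 0–100 scale (100 = complete control); a dash means not tested.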

blackgrass [2] = test: Test C preemergence; format: in vivo, Alopecurus myosuroides; conditions: 0 to 100 scale (0 no effect, 100 complete control)
Outline: (§3)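 Greenhouse herbicide screen, 10-day duration. Test chemicals in solvent/surfactant blend were sprayed onto soil at sowing (pre) or onto 2–10 cm seedlings at one to two leaves (post); injury scored visually against controls, 0 no effect to 100 complete control.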

sedge, umbrella = test: Test D flooded paddy test; format: in vivo, Cyperus difformis; conditions: 250 g ai/ha, applied to paddy water, visual rating after 13 to 14 days, scale 0 to 100 (0 no effect, 100 complete control)
Outline: as §2

wheat [3] = test: Test C postemergence; format: in vivo, Triticum aestivum; conditions: 125 g ai/ha, postemergence, 10 days; 0 to 100 scale, 0 no effect, 100 complete control
Outline: as §3

foxtail, giant [4] = test: Test C preemergence; format: in vivo, Setaria faberi; conditions: preemergence, 0 to 100 scale (0 no effect, 100 complete control)
Outline: as §3

soybean [5] = test: Test C preemergence; format: in vivo, Glycine max; conditions: preemergence, 0 to 100 scale (0 no effect, 100 complete control)
Outline: as §3

ryegrass, Italian [6] = test: Test C preemergence; format: in vivo, Lolium multiflorum; conditions: preemergence, 0 to 100 scale (0 no effect, 100 complete control)
Outline: as §3

pigweed, palmer [7] = test: Test C preemergence; format: in vivo, Amaranthus palmeri; conditions: preemergence, 0 to 100 scale (0 no effect, 100 complete control)
Outline: as §3

pigweed, palmer [8] = test: Test C postemergence; format: in vivo, Amaranthus palmeri; conditions: 125 g ai/ha, postemergence, 10 days; 0 to 100 scale, 0 no effect, 100 complete control
Outline: as §3

kochia [9] = test: Test C postemergence; format: in vivo, Bassia scoparia; conditions: 125 g ai/ha, postemergence, 10 days; 0 to 100 scale, 0 no effect, 100 complete control
Outline: as §3

corn [10] = test: Test C preemergence; format: in vivo, Zea mays; conditions: preemergence, 0 to 100 scale (0 no effect, 100 complete control)
Outline: as §3

rice = test: Test D flooded paddy test; format: in vivo, Oryza sativa; conditions: 250 g ai/ha, applied to paddy water, visual rating after 13 to 14 days, scale 0 to 100 (0 no effect, 100 complete control)
Outline: as §2

ducksalad = test: Test D flooded paddy test; format: in vivo, Heteranthera limosa; conditions: 250 g ai/ha, applied to paddy water, visual rating after 13 to 14 days, scale 0 to 100 (0 no effect, 100 complete control)
Outline: as §2

ragweed [11] = test: Test C postemergence; format: in vivo, Ambrosia artemisiifolia; conditions: 125 g ai/ha, postemergence, 10 days; 0 to 100 scale, 0 no effect, 100 complete control
Outline: as §3

oat, wild [12] = test: Test C postemergence; format: in vivo, Avena fatua; conditions: 125 g ai/ha, postemergence, 10 days; 0 to 100 scale, 0 no effect, 100 complete control
Outline: as §3

foxtail, giant [13] = test: Test C postemergence; format: in vivo, Setaria faberi; conditions: 10 days
Outline: as §3

oat, wild [14] = test: Test C preemergence; format: in vivo, Avena fatua; conditions: preemergence, 0 to 100 scale (0 no effect, 100 complete control)
Outline: as §3

galium = test: Test C postemergence; format: in vivo, Galium aparine; conditions: 10 days
Outline: as §3

ryegrass, Italian [15] = test: Test C postemergence; format: in vivo, Lolium multiflorum; conditions: 125 g ai/ha, postemergence, 10 days; 0 to 100 scale, 0 no effect, 100 complete control
Outline: as §3

blackgrass [16] = test: Test C postemergence; format: in vivo, Alopecurus myosuroides; conditions: 10 days
Outline: as §3

kochia [17] = test: Test C preemergence; format: in vivo, Bassia scoparia; conditions: preemergence, 0 to 100 scale (0 no effect, 100 complete control)
Outline: as §3

horseweed = test: Test C postemergence; format: in vivo, Erigeron canadensis; conditions: 10 days
Outline: as §3

soybean [18] = test: Test C postemergence; format: in vivo, Glycine max; conditions: 125 g ai/ha, postemergence, 10 days; 0 to 100 scale, 0 no effect, 100 complete control
Outline: as §3

corn [19] = test: Test C postemergence; format: in vivo, Zea mays; conditions: 10 days
Outline: as §3

goosegrass [20] = test: Test C preemergence; format: in vivo, Eleusine indica; conditions: preemergence, 0 to 100 scale (0 no effect, 100 complete control)
Text: as §1

ragweed [21] = test: Test C preemergence; format: in vivo, Ambrosia artemisiifolia; conditions: preemergence, 0 to 100 scale (0 no effect, 100 complete control)
Outline: as §3

wheat [22] = test: Test C preemergence; format: in vivo, Triticum aestivum; conditions: preemergence, 0 to 100 scale (0 no effect, 100 complete control)
Outline: as §3

[23] = 125 g ai/ha, postemergence, 0 to 100 scale, 0 no effect, 100 complete control
[24] = Postemergence, 500 g ai/ha, visual 0 to 100 scale (0 no effect, 100 complete control)

Cc1cccc2c1O[C@@H](C)CN2C(=O)c1cccc(-n2nccn2)c1 [Compound 282]
0: Plant response rating, Goosegrass (goosegrass [1]; [23]) | Plant response rating, Goosegrass (goosegrass [1]; [24]) | Plant response rating, Barnyardgrass (Flood) (barnyardgrass) | Plant response rating, Blackgrass (blackgrass [2]; Preemergence, 500 g ai/ha, visual rating after 10 days) | Blackgrass plant response rating (blackgrass [2]; Test C, preemergence, 125 g ai/ha) | Plant response rating, Sedge, Umbrella (Flood) (sedge, umbrella) | Plant response rating, Wheat (wheat [3]) | Foxtail, Giant plant response rating (foxtail, giant [4]; 500 g ai/ha) | Foxtail, Giant plant response rating (foxtail, giant [4]; Test C, 125 g ai/ha) | Soybean plant response rating (soybean [5]; 500 g ai/ha) | Soybean plant response rating (soybean [5]; Test C, 125 g ai/ha) | Ryegrass, Italian plant response rating (ryegrass, Italian [6]; 500 g ai/ha) | Ryegrass, Italian plant response rating (ryegrass, Italian [6]; Test C, 125 g ai/ha) | Pigweed, Palmer plant response rating (pigweed, palmer [7]; 500 g ai/ha) | Pigweed, Palmer plant response rating (pigweed, palmer [7]; Test C, 125 g ai/ha) | Plant response rating, Pigweed, Palmer (pigweed, palmer [8]) | Plant response rating, Kochia (kochia [9]) | Corn plant response rating (corn [10]; 500 g ai/ha) | Corn plant response rating (corn [10]; Test C, 125 g ai/ha) | Plant response rating, Rice (Flood) (rice) | Plant response rating, Ducksalad (Flood) (ducksalad) | Plant response rating, Ragweed (ragweed [11]) | Plant response rating, Oat, Wild (oat, wild [12]) | Plant response rating, Foxtail, Giant (foxtail, giant [13]; [23]) | Plant response rating, Foxtail, Giant (foxtail, giant [13]; [24]) | Oat, Wild plant response rating (oat, wild [14]; 500 g ai/ha) | Oat, Wild plant response rating (oat, wild [14]; Test C, 125 g ai/ha) | Plant response rating, Galium (galium; [23]) | Plant response rating, Galium (galium; [24]) | Plant response rating, Ryegrass, Italian (ryegrass, Italian [15]) | Plant response rating, Blackgrass (blackgrass [16]; [23]) | Plant response rating, Blackgrass (blackgrass [16]; [24]) | Kochia plant response rating (kochia [17]; 500 g ai/ha) | Kochia plant response rating (kochia [17]; Test C, 125 g ai/ha) | Plant response rating, Horseweed (horseweed; [23]) | Plant response rating, Horseweed (horseweed; [24]) | Plant response rating, Soybean (soybean [18]) | Plant response rating, Corn (corn [19]; [23]) | Plant response rating, Corn (corn [19]; [24]) | Goosegrass plant response rating (goosegrass [20]; 500 g ai/ha) | Goosegrass plant response rating (goosegrass [20]; Test C, 125 g ai/ha) | Ragweed plant response rating (ragweed [21]; 500 g ai/ha) | Ragweed plant response rating (ragweed [21]; Test C, 125 g ai/ha) | Wheat plant response rating (wheat [22]; 500 g ai/ha) | Wheat plant response rating (wheat [22]; Test C, 125 g ai/ha)
